Broadly, the IC50 is the concentration that inhibits the measured activity by half. A lower IC50 goes with greater potency.

The experiment concerns the target human dUTPase (Homo sapiens (Human), UniProt P33316). In words: Human dUTPase inhibitory effect: production of [5-3H]dUMP from [5-3H]dUTP, measured by HPLC with flow scintillation. Format: biochemical. Conditions: [5-3H]dUMP production from [5-3H]dUTP, 37° C., 15 minutes. Here is the method:
The inhibitory activity of the compound of the present invention against human dUTPase was determined by measuring the production of [5-^3H]deoxyuridine monophosphate (hereinafter, referred to as [5-^3H]dUMP) from [5-^3H]deoxyuridine triphosphate (hereinafter, referred to as [5-^3H]dUTP) according to a method shown below.
Specifically, 0.2 mL in total of a solution containing 0.02 mL of 1 μM dUTP (including 588 Bq/mL [5-3H]dUTP), 0.05 mL of a 0.2 M Tris buffer solution (pH 7.4), 0.05 mL of 16 mM magnesium chloride, 0.02 mL of 20 mM 2-mercaptoethanol, 0.02 mL of a 1% aqueous solution of fetal bovine serum-derived albumin, 0.02 mL of varying concentrations of test compound solutions or pure water as a control, and 0.02 mL of a solution of human dUTPase (expressed using E. coli and purified) was reacted at 37° C. for 15 minutes. Immediately after the reaction, the solution was heated at 100° C. for 1 minute to terminate the reaction, followed by centrifugation at 15000 rpm for 2 minutes. An aliquot (150 μL) of the supernatant thus obtained by centrifugation was analyzed using an Atlantis dC18 column (manufactured by Waters Corp., 4.6×250 mm) and a high-performance liquid chromatograph (manufactured by Shimadzu Corp., Prominence). Elution was performed at a flow rate of 0.8 mL/min for 30 minutes by a concentration gradient from a 4:6 mixed solution of a mobile phase A (10 mM potassium dihydrogen phosphate (pH 6.7), 10 mM tetrabutylammonium, and 0.25% methanol) and a mobile phase B (50 mM potassium dihydrogen phosphate (pH 6.7), 5.6 mM tetrabutylammonium, and 30% methanol) to the mobile phase B. The eluate was mixed with a scintillator (manufactured by PerkinElmer Co., Ltd., Ultima-Flo AP) at a 1:2 ratio, and the radioactivity of the produced [5-^3H]dUMP (RT 10.2 min) was measured using Radiomatic Flow Scintillation Analyzer (manufactured by PerkinElmer Co., Ltd., 525TR).
The inhibitory activity of the test compound was determined according to the formula shown below.

SMILES strings stand for the structures.

Sequence of human dUTPase (P33316 94-252): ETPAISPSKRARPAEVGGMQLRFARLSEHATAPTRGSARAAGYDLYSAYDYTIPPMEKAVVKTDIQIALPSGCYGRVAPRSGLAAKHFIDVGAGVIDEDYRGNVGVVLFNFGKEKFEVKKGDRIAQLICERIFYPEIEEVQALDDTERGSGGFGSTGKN

For `O=c1ccn(COCCCS(=O)(=O)NCc2cccc(OC3CCCC3)c2)c(=O)[nH]1` [Example 21, N-(3-(cyclopentyloxy)benzyl)-3-((2,4-dioxo-3,4-dihydropyrimidin-1(2H)-yl)methoxy)propane-1-sulfonamide], half-maximal inhibition (IC50) required 270 nM.
In turn, `CC[C@@H](NS(=O)(=O)CCCOCn1ccc(=O)[nH]c1=O)c1ccc(F)c(OCC2CC2)c1` [Example 22, (R)—N-(1-(3-(cyclopropylmethoxy)-4-fluorophenyl)propyl)-3-((2,4-dioxo-3,4-dihydropyrimidin-1(2H)-yl)methoxy)propane-1-sulfonamide] gave an IC50 of 30 nM.
`C[C@@H](NS(=O)(=O)CCCOCn1ccc(=O)[nH]c1=O)c1cccc(OCC2CC2)c1` [Example 23, (R)—N-(1-(3-(cyclopropylmethoxy)phenyl)ethyl)-3-((2,4-dioxo-3,4-dihydropyrimidin-1(2H)-yl)methoxy)propane-1-sulfonamide] showed an IC50 of 50 nM.
For the molecule `C[C@@H](NS(=O)(=O)CCCOCn1ccc(=O)[nH]c1=O)c1ccc(F)c(OC2CCCC2)c1` [Example 24, (R)—N-(1-(3-(cyclopentyloxy)-4-fluorophenyl)ethyl)-3-((2,4-dioxo-3,4-dihydropyrimidin-1(2H)-yl)methoxy)propane-1-sulfonamide], the IC50 was determined as 40 nM.
Turning to `CC(C)C(NS(=O)(=O)CCCOCn1ccc(=O)[nH]c1=O)c1ccc(F)c(OCC2CC2)c1` (centres unmarked) [Example 25, N-(1-(3-(cyclopropylmethoxy)-4-fluorophenyl)-2-methylpropyl)-3-((2,4-dioxo-3,4-dihydropyrimidin-1(2H)-yl)methoxy)propane-1-sulfonamide], half-maximal inhibition (IC50) required 100 nM.
Molecule `CC(C)(NS(=O)(=O)CCCOCn1ccc(=O)[nH]c1=O)c1cccc(OCC2CC2)c1` [Example 26, N-(2-(3-(cyclopropylmethoxy)phenyl)propan-2-yl)-3-((2,4-dioxo-3,4-dihydropyrimidin-1(2H)-yl)methoxy)propane-1-sulfonamide] yielded an IC50 of 520 nM.
As for `CC[C@@H](NS(=O)(=O)CCCOCn1ccc(=O)[nH]c1=O)c1cccc(OCC2CC2)c1` [Example 27, (R)—N-(1-(3-(cyclopropylmethoxy)phenyl)propyl)-3-((2,4-dioxo-3,4-dihydropyrimidin-1(2H)-yl)methoxy)propane-1-sulfonamide], the figure is 40 nM; as for `CC(C)(NS(=O)(=O)CCCOCn1ccc(=O)[nH]c1=O)c1ccc(F)c(OCC2CC2)c1` [Example 28, N-(2-(3-(cyclopropylmethoxy)-4-fluorophenyl)propan-2-yl)-3-((2,4-dioxo-3,4-dihydropyrimidin-1(2H)-yl)methoxy)propane-1-sulfonamide], 360 nM; as for `O=c1ccn(COCCCS(=O)(=O)NC(c2ccccc2)c2cccc(OCC3CCC3)c2)c(=O)[nH]1` (centres unmarked) [Example 29, N-((3-(cyclobutylmethoxy)phenyl)(phenyl)methyl)-3-((2,4-dioxo-3,4-dihydropyrimidin-1(2H)-yl)methoxy)propane-1-sulfonamide], 890 nM.
`O=c1ccn(COCCCS(=O)(=O)NC(c2cccc(OCC3CC3)c2)C2CC2)c(=O)[nH]1` (centres unmarked) [Example 30, N-(cyclopropyl(3-(cyclopropylmethoxy)phenyl)methyl)-3-((2,4-dioxo-3,4-dihydropyrimidin-1(2H)-yl)methoxy)propane-1-sulfonamide]: the IC50 was determined as 360 nM.
As for `CC(C)C(NS(=O)(=O)CCCOCn1ccc(=O)[nH]c1=O)c1cccc(OCC2CC2)c1` (centres unmarked) [Example 31, N-(1-(3-(cyclopropylmethoxy)phenyl)-2-methylpropyl)-3-((2,4-dioxo-3,4-dihydropyrimidin-1(2H)-yl)methoxy)propane-1-sulfonamide], the figure is 330 nM; as for `CC(NS(=O)(=O)CCCOCn1ccc(=O)[nH]c1=O)c1cccc(OC2CCCC2)c1` (centres unmarked) [Example 32, N-(1-(3-(cyclopentyloxy)phenyl)ethyl)-3-((2,4-dioxo-3,4-dihydropyrimidin-1(2H)-yl)methoxy)propane-1-sulfonamide], 140 nM.
`O=c1ccn(COCCCS(=O)(=O)NCc2cccc(OC3CC3)c2)c(=O)[nH]1` [Example 33, N-(3-cyclopropoxybenzyl)-3-((2,4-dioxo-3,4-dihydropyrimidin-1(2H)-yl)methoxy)propane-1-sulfonamide] came in with an IC50 of 1130 nM.
As for `CCC(NS(=O)(=O)CCCOCn1ccc(=O)[nH]c1=O)c1ccc(F)c(OCC2CC2)c1` (centres unmarked) [Example 34, N-(1-(3-(cyclopropylmethoxy)-4-fluorophenyl)propyl)-3-((2,4-dioxo-3,4-dihydropyrimidin-1(2H)-yl)methoxy)propane-1-sulfonamide], the figure is 30 nM; as for `CC(C)[C@H](NS(=O)(=O)CCCOCn1ccc(=O)[nH]c1=O)c1ccc(F)c(OCC2CC2)c1` [Example 35, (S)—N-(1-(3-(cyclopropylmethoxy)-4-fluorophenyl)-2-methylpropyl)-3-((2,4-dioxo-3,4-dihydropyrimidin-1(2H)-yl)methoxy)propane-1-sulfonamide], 1550 nM.
The molecule `CC(NS(=O)(=O)CCCOCn1ccc(=O)[nH]c1=O)c1ccc(F)c(OCC2CC2)c1` (centres unmarked) [Example 36, N-(1-(3-(cyclopropylmethoxy)-4-fluorophenyl)ethyl)-3-((2,4-dioxo-3,4-dihydropyrimidin-1(2H)-yl)methoxy)propane-1-sulfonamide] came in with an IC50 of 150 nM.
On to `O=c1ccn(COCCCS(=O)(=O)N[C@H](c2ccc(F)cc2)c2ccc(F)c(OCC3CC3)c2)c(=O)[nH]1` [Example 37, (R)—N-((3-(cyclopropylmethoxy)-4-fluorophenyl)(4-fluorophenyl)methyl)-3-((2,4-dioxo-3,4-dihydropyrimidin-1(2H)-yl)methoxy)propane-1-sulfonamide], for which the IC50 came out at 100 nM.
The molecule `O=c1ccn(COCCCS(=O)(=O)N[C@@H](c2ccc(F)c(OCC3CC3)c2)c2cccs2)c(=O)[nH]1` [Example 38, (S)—N-((3-(cyclopropylmethoxy)-4-fluorophenyl)(thiophen-2-yl)methyl)-3-((2,4-dioxo-3,4-dihydropyrimidin-1(2H)-yl)methoxy)propane-1-sulfonamide] gave a 50% inhibitory concentration (IC50) of 30 nM.
Take `O=c1ccn(COCCCS(=O)(=O)NC2(c3cccc(OCC4CC4)c3)CCCC2)c(=O)[nH]1` [Example 39, N-(1-(3-(cyclopropylmethoxy)phenyl)cyclopentyl)-3-((2,4-dioxo-3,4-dihydropyrimidin-1(2H)-yl)methoxy)propane-1-sulfonamide]: half-maximal inhibition (IC50) required 280 nM.
Under `O=c1ccn(COCCCS(=O)(=O)N[C@@H](c2ccc(F)c(OCC3CC3)c2)C2CC2)c(=O)[nH]1` [Example 40, (R)—N-(cyclopropyl (3-(cyclopropylmethoxy)-4-fluorophenyl)methyl)-3-((2,4-dioxo-3,4-dihydropyrimidin-1(2H)-yl)methoxy)propane-1-sulfonamide] stands 100 nM; under `CC[C@@H](NS(=O)(=O)CCCOCn1ccc(=O)[nH]c1=O)c1cccc(OC2CCCC2)c1` [Example 41, (R)—N-(1-(3-(cyclopentyloxy)phenyl)propyl)-3-((2,4-dioxo-3,4-dihydropyrimidin-1(2H)-yl)methoxy)propane-1-sulfonamide], 40 nM; under `O=c1ccn(COCCCS(=O)(=O)N[C@@H](c2cccc(OC3CCCC3)c2)C2CC2)c(=O)[nH]1` [Example 42, (R)—N-((3-(cyclopentyloxy)phenyl)(cyclopropyl)methyl)-3-((2,4-dioxo-3,4-dihydropyrimidin-1(2H)-yl)methoxy)propane-1-sulfonamide], 330 nM.
The molecule `CC[C@@H](NS(=O)(=O)CCCOCn1ccc(=O)[nH]c1=O)c1cccc(OC2CC2)c1` [Example 43, (R)—N-(1-(3-cyclopropoxyphenyl)propyl)-3-((2,4-dioxo-3,4-dihydropyrimidin-1(2H)-yl)methoxy)propane-1-sulfonamide] gave an IC50 of 90 nM.
`O=c1ccn(COCCCS(=O)(=O)NCc2ccc(F)c(OC3CCCC3)c2)c(=O)[nH]1` [Example 44, N-(3-(cyclopentyloxy)-4-fluorobenzyl)-3-((2,4-dioxo-3,4-dihydropyrimidin-1(2H)-yl)methoxy)propane-1-sulfonamide] gave an IC50 of 160 nM.
Molecule `O=c1ccn(COCCCS(=O)(=O)NCc2cccc(OC3CCCCC3)c2)c(=O)[nH]1` [Example 45, N-(3-(cyclohexyloxy)benzyl)-3-((2,4-dioxo-3,4-dihydropyrimidin-1(2H)-yl)methoxy)propane-1-sulfonamide] displayed an IC50 of 2010 nM.
As for `O=c1ccn(COCCCS(=O)(=O)NCc2cccc(OC3CCOCC3)c2)c(=O)[nH]1` [Example 46, 3-((2,4-dioxo-3,4-dihydropyrimidin-1(2H)-yl)methoxy)-N-(3-(tetrahydro-2H-pyran-4-yloxy)benzyl)propane-1-sulfonamide], the figure is 2350 nM.

These data come from US8530490B2, “Uracil compound or salt thereof having human deoxyuridine triphosphatase inhibitory activity” (Taiho Pharmaceutical Co., Ltd., priority 2008, dated 2013).
